Experimental data taken from patent US9187465B2, “Oxazole tyrosine kinase inhibitors” (Sareum Limited, priority 2007, dated 2015).
pIC50: −log10 of the molar value.

Columns and labels:
[1] = biological target: T1, human FLT4 (Homo sapiens, UniProt P35916); experiment: FLT4 kinase assay (DELFIA enzyme inhibition); type: biochemical; conditions: read-out: FLT4 IC50
T1 construct: a construct expressing the human FLT4 (789-1207) with an amino terminal GST tag; host or cells: Sf9 insect cells (baculovirus)
T1 sequence (P35916 789-1207): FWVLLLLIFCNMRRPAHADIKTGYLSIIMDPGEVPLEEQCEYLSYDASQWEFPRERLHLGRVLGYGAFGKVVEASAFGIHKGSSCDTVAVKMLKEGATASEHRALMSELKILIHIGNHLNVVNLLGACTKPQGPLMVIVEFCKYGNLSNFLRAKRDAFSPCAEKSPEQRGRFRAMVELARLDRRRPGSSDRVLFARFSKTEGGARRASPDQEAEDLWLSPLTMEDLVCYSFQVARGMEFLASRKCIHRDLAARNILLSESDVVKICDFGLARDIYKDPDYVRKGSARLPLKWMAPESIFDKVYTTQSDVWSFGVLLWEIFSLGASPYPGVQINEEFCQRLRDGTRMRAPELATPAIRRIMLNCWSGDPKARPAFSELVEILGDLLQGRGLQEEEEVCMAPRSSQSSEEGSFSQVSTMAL
Protocol: A GST-kinase fusion protein of 70 KDa was produced using sf9 baculovirus expression system, with a construct expressing the human FLT4 (789-1207) with an amino terminal GST tag. The protein was purified by affinity chromatography using glutathione-agarose followed by separation on a gel filtration column.
FLT4 enzyme activity is determined using a Dissociation Enhanced Lanthanide Fluorescent Immunoassay (DELFIA) with a peptide substrate derived from the MET (Tyr 1253) peptide […] with a core sequence […].
The amount of phosphorylated peptide produced is detected by means of a phospho-Tyrosine specific Europium-labelled antibody using Time-Resolved Fluorescence at Excitation 360-35 nm and Emission 620-35 nm.
Assay reactions are set up in a 25 uL final volume on a 96 well plate. […] The reaction is allowed to proceed for 30 minutes at room temperature before stopping with 100 uL Stop solution comprising of 100 mM EDTA, 1×BSA blocker in TBS (Perbio) and 0.05% Surfact-Amps20 (Perbio).
The stopped reaction is transferred to a black 96-well Neutravidin-coated plate (Perbio) and incubated for 30 minutes to capture the biotinylated peptide substrate. After washing wells 3 times with 200 uL TBS/T buffer, Anti-Phospho-Tyr-100 antibody labelled with Eu—N1 (Perkin Elmer AD0159) is added to all wells for 60 minutes at room temperature. After a repeat washing step, DELFIA Enhancement solution (Perkin Elmer) is added to all wells for 5 minutes and the fluorescence measured on a plate reader Analyst HT (Molecular Devices).
The % inhibition of the activity is calculated and plotted in order to determine the concentration of test compound required to inhibit 50% of the enzyme activity (IC50).

[2] = biological target: T2, human Aurora A (Homo sapiens, UniProt O14965); experiment: Aurora A kinase assay (DELFIA enzyme inhibition); type: biochemical; conditions: read-out: Aurora A IC50
T2 construct: Histidine tag (N); host or cells: Sf9 insect cells (baculovirus)
T2 sequence (O14965 1-403): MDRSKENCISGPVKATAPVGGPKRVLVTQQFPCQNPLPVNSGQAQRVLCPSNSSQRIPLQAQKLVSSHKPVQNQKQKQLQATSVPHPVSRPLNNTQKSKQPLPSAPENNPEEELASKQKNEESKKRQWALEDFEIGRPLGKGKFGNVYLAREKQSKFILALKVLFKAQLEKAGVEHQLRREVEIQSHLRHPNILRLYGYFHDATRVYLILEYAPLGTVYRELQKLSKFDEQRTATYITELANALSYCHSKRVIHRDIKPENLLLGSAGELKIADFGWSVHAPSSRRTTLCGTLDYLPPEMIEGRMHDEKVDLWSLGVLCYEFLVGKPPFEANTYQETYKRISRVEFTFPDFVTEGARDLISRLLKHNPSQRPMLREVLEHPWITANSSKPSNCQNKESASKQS
Protocol: The protein was purified by one-step affinity chromatography using nickel-agarose […]
Assay reactions are set up in a 25 uL final volume on a 96 well plate. […] The reaction is allowed to proceed for 30 minutes at room temperature before stopping with 100 μL Stop solution comprising of 100 mM EDTA, 1×BSA blocker in TBS (Perbio) and 0.05% Surfact-Amps20 (Perbio).
The stopped reaction is transferred to a black 96-well Neutravidin-coated plate (Perbio) and incubated for 30 minutes to capture the biotinylated peptide substrate. […] After repeating the washing step, the plate is further incubated for one hour with Europium-labelled anti-rabbit antibody (Perkin Elmer AD0105). The wash step is repeated for a final time before DELFIA Enhancement solution (Perkin Elmer) is added to all wells for 5 minutes and the fluorescence measured on a plate reader Analyst HT (Molecular Devices).

pIC50 [1]	pIC50 [2]	Compound
> 5.00	> 5.00	CN(C)CCNc1ccc(-c2oc(-c3c(F)cccc3F)nc2C(N)=O)cc1 [Example F-33, 2-(2,6-difluorophenyl)-5-(4-(2-(dimethylamino)ethylamino)phenyl)oxazole-4-carboxamide]
> 5.00	> 5.00	NC(=O)c1nc(-c2c(F)cccc2F)oc1-c1ccc(NCCN2CCOCC2)cc1 [Example F-34, 2-(2,6-difluorophenyl)-5-(4-(2-morpholinoethylamino)phenyl)oxazole-4-carboxamide]
> 5.00	> 5.00	NC(=O)c1nc(-c2cccnc2)oc1-c1ccc(N2CCNCC2)cc1 [Example M-13, 5-(4-(piperazin-1-yl)phenyl)-2-(pyridin-3-yl)oxazole-4-carboxamide]
> 5.00	> 5.00	NC(=O)c1nc(-c2ccncc2)oc1-c1ccc(N2CCNCC2)cc1 [Example M-14, 5-(4-(piperazin-1-yl)phenyl)-2-(pyridin-4-yl)oxazole-4-carboxamide]
> 5.00	> 5.00	NC(=O)c1nc(-c2ccc3[nH]ccc3c2)oc1-c1ccc(N2CCNCC2)cc1 [Example M-15, 2-(1H-indol-5-yl)-5-(4-(piperazin-1-yl)phenyl)oxazole-4-carboxamide]
> 5.00	> 5.00	NC(=O)c1nc(-c2ccc3cc[nH]c3c2)oc1-c1ccc(N2CCNCC2)cc1 [Example M-16, 2-(1H-indol-6-yl)-5-(4-(piperazin-1-yl)phenyl)oxazole-4-carboxamide]
> 5.00	> 5.00	NC(=O)c1nc(-c2ccnc3[nH]ccc23)oc1-c1ccc(N2CCNCC2)cc1 [Example M-18, 5-(4-(piperazin-1-yl)phenyl)-2-(1H-pyrrolo[2,3-b]pyridin-4-yl)oxazole-4-carboxamide]
> 5.00	> 5.00	COc1ccc(-c2oc(-c3cc[nH]n3)nc2C(N)=O)cc1 [Example N-1, 5-(4-methoxyphenyl)-2-(1H-pyrazol-5-yl)oxazole-4-carboxamide]
> 4.00	> 4.00	COc1ccc(-c2oc(-c3cccc(C)c3)nc2C(N)=O)cc1 [Example N-10, 5-(4-methoxyphenyl)-2-m-tolyloxazole-4-carboxamide]
> 5.00	> 5.00	NC(=O)c1nc(-c2c(F)cccc2F)oc1Nc1ccccc1 [Example O-1, 2-(2,6-difluorophenyl)-5-(phenylamino)oxazole-4-carboxamide]
> 5.00	> 5.00	CS(=O)(=O)c1cccc(Nc2oc(-c3c(F)cccc3F)nc2C(N)=O)c1 [Example Q-4, 2-(2,6-difluorophenyl)-5-(3-(methylsulfonyl)phenylamino)oxazole-4-carboxamide]
> 5.00	> 4.00	COc1ccccc1Nc1oc(-c2c(F)cccc2F)nc1C(N)=O [Example Q-5, 2-(2,6-difluorophenyl)-5-(2-methoxyphenylamino)oxazole-4-carboxamide]
> 4.00	> 4.00	COc1cccc(Nc2oc(-c3c(F)cccc3F)nc2C(N)=O)c1 [Example Q-6, 2-(2,6-difluorophenyl)-5-(3-methoxyphenylamino)oxazole-4-carboxamide]
> 5.00	> 5.00	NC(=O)c1nc(-c2c(F)cccc2F)oc1Nc1ccc(N2CCC(N)CC2)cc1 [Example Q-17, 5-(4-(4-aminopiperidin-1-yl)phenylamino)-2-(2,6-difluorophenyl)oxazole-4-carboxamide]
> 5.00	> 5.00	NCC1CCN(c2ccc(Nc3oc(-c4c(F)cccc4F)nc3C(N)=O)cc2)CC1 [Example Q-18, 5-(4-(4-(aminomethyl)piperidin-1-yl)phenylamino)-2-(2,6-difluorophenyl)oxazole-4-carboxamide]
> 5.00	> 4.00	COc1ccc(Nc2oc(-c3c(F)cccc3F)nc2C(N)=O)cc1OC [Example Q-39, 2-(2,6-difluorophenyl)-5-(3,4-dimethoxyphenylamino)oxazole-4-carboxamide]
> 4.00	> 4.00	NC(=O)c1nc(-c2c(F)cccc2F)oc1Nc1ccc2c(c1)OCO2 [Example Q-41, 5-(benzo[d][1,3]dioxol-5-ylamino)-2-(2,6-difluorophenyl)oxazole-4-carboxamide]
> 5.00	> 4.00	NC(=O)c1nc(-c2c(F)cccc2F)oc1Nc1ccc(OC(F)(F)F)cc1 [Example Q-42, 2-(2,6-difluorophenyl)-5-(4-(trifluoromethoxy)phenylamino)oxazole-4-carboxamide]
> 5.00	> 4.00	CS(=O)(=O)c1ccc(Nc2oc(-c3c(F)cccc3F)nc2C(N)=O)c(F)c1 [Example Q-43, 2-(2,6-difluorophenyl)-5-(2-fluoro-4-(methylsulfonyl)phenylamino)oxazole-4-carboxamide]
> 5.00	> 4.00	CS(=O)(=O)c1ccc(F)c(Nc2oc(-c3c(F)cccc3F)nc2C(N)=O)c1 [Example Q-44, 2-(2,6-difluorophenyl)-5-(2-fluoro-5-(methylsulfonyl)phenylamino)oxazole-4-carboxamide]
> 5.00	> 5.00	NC(=O)c1nc(-c2c(F)cccc2F)oc1Nc1cccnc1 [Example Q-45, 2-(2,6-difluorophenyl)-5-(pyridin-3-ylamino)oxazole-4-carboxamide]
> 5.00	> 5.00	NC(=O)c1nc(-c2c(F)cccc2F)oc1Nc1ccc(C2CCNCC2)cc1 [Example Q-46, 2-(2,6-difluorophenyl)-5-(4-(piperidin-4-yl)phenylamino)oxazole-4-carboxamide]
> 5.00	> 5.00	NC(=O)c1nc(-c2c(F)cccc2F)oc1Nc1ccc(N2CCOCC2)nc1 [Example Q-48, 2-(2,6-difluorophenyl)-5-(6-morpholinopyridin-3-ylamino)oxazole-4-carboxamide]
> 5.00	> 5.00	CN1CCN(c2ccc(Nc3oc(-c4c(F)cccc4F)nc3C(N)=O)cn2)CC1 [Example Q-49, 2-(2,6-difluorophenyl)-5-(6-(4-methylpiperazin-1-yl)pyridin-3-ylamino)oxazole-4-carboxamide]
> 5.00	> 5.00	NC(=O)c1nc(-c2c(F)cccc2F)oc1Nc1ccc(C(=O)NCC2CCNCC2)cc1 [Example Q-50, 5-(4-((piperidin-4-ylmethyl)carbamoyl)phenylamino)-2-(2,6-difluorophenyl)oxazole-4-carboxamide]
> 5.00	> 5.00	NCCCNC(=O)c1ccc(Nc2oc(-c3c(F)cccc3F)nc2C(N)=O)cc1 [Example Q-51, 5-(4-((3-aminopropyl)carbamoyl)phenylamino)-2-(2,6-difluorophenyl)oxazole-4-carboxamide]
> 5.00	> 5.00	NCCNC(=O)c1ccc(Nc2oc(-c3c(F)cccc3F)nc2C(N)=O)cc1 [Example Q-52, 5-(4-((2-aminoethyl)carbamoyl)phenylamino)-2-(2,6-difluorophenyl)oxazole-4-carboxamide]
> 5.00	> 5.00	NC(=O)c1nc(-c2c(F)cccc2F)oc1Nc1ccc(C(=O)N[C@@H]2CCCNC2)cc1 [Example Q-53, (R)-2-(2,6-difluorophenyl)-5-(4-(piperidin-3-ylcarbamoyl)phenylamino)oxazole-4-carboxamide]
> 5.00	> 5.00	NC(=O)c1nc(-c2c(F)cccc2F)oc1Nc1ccc(C(=O)N[C@H]2CCCNC2)cc1 [Example Q-54, (S)-2-(2,6-difluorophenyl)-5-(4-(piperidin-3-ylcarbamoyl)phenylamino)oxazole-4-carboxamide]
